In paper PMC11879792 (Frontiers in Pharmacology, 2025):

Legend:
[1] = set-up: method as in Diasio and Harris, 1989; details: parenteral administration of 5-FU; approximately; ref Diasio and Harris, 1989; cited from earlier work
[2] = Single-dose, two-cycle crossover PK/bioequivalence trial of S-1 capsules, fasting; format: in vivo, Chinese cancer patients; details: human, plasma, oral, 100 mg; fasting conditions
Text: This study, a multicenter, randomized, open-label, single-dose, two-cycle crossover investigation, was distinctly divided into fasting and fed trials. Each subject received either the test or reference formulation in a separate cycle. Each cycle consisted of a 4-day inpatient phase, followed by a 7-day washout period between cycles to ensure that any residual effects from the previous formulation had fully dissipated before the initiation of the next cycle. To avoid the residual effects of fasting or feeding that could influence the results, the fasting and fed trials each enrolled 60 subjects. Subjects were randomly allocated to one of the two treatment sequences, namely, test-reference or reference-test, in a 1:1 ratio. All eligible subjects were admitted to the clinical ward 1 day prior to drug administration, adhering to a minimum fasting period of 10 h before drug intake. In the fasting trial, subjects were required to fast. Subsequently, they ingested a single dose comprising two capsules (50 mg each) of either the test or reference formulation, accompanied by 240 mL of warm water. […]
OXO was determined in blood, which was performed under the following conditions: the aqueous solution containing 5 mM ammonium acetate (mobile phase A) and acetonitrile (mobile phase B). […]

O=c1[nH]cc(F)c(=O)[nH]1 [5-FU, 5-fluorouracil]
half-life [1]: 8 to 20 min

Oc1cc(O)c(Cl)cn1 [CDHP, gimeracil]
Tmax [2]: ~1 h
